Laboratory results published in US8163661B2, “Luminescence measurement system” (Olympus Corporation, priority 2007, dated 2012).
Read-outs that look alike come from different tables or passages of the source.

Assays:
[1] = tested on: ELuc (Emerald Luc) luciferase (originating from Hikari Kometsuki); test: Km value of ELuc luciferase relative to D-luciferin and ATP (luminometer, photon count); format: biochemical; conditions: 8 mM MgSO4, 0.1M Tris-HCl pH 8.0
Experimental: (§1) As for the blank, the buffer described above was employed. FIG. 6 illustrates the ultraviolet/visible light absorption spectrum of […].
(§2) Then, in order to calculate the concentration of ATP, the ultraviolet/visible light absorption spectrum of ATP was measured. In this measurement, the spectrum was measured using a diluted (by 2000 times) solution (in 0.1M Citrate/0.2M Na2HPO4 buffer, pH=7.0) of ATP stock solution (about 100 mM). As for the blank, the buffer described above was employed. FIG. 7 illustrates the ultraviolet/visible light absorption spectrum of ATP.
(§3) (Experiment Method 2: Purification of Various Kinds of Luciferase)
(§4) The purification of luciferase was performed according to the following procedure after establishing a luciferase-purification system utilizing affinity chromatography.
(§5) (Procedure of Transfection of Luciferase Expression Vector to Coli Bacillus)
(§6) First of all, 0.5 μL of luciferase expression vector was introduced into 50 μL of coli bacillus (JM109(DE3)). Then, the resultant liquid was subjected to a thermostatic treatment consisting of ice-cooling for 10 minutes, heating at 42° C. for one minute and ice-cooling for two minutes. Then, 2 μL of the resultant coli bacillus solution was added to 1 mL of an SOC culture medium.
(§7) Subsequently, the resultant solution of coli bacillus/SOC culture medium mixture was subjected to shaking at 37° C. for 20 minutes and to incubation. Then, 100 μL of the resultant solution was streaked onto an LB culture medium plate (Ampicillin 100 μg/mL+) and subjected to incubation overnight at 37° C.
(§8) (Purification of Luciferase by Means of Affinity Chromatography)
(§9) Then, the coli bacillus was fractured to obtain a raw extract, from which luciferase was purified by means of affinity chromatography.
(§10) Namely, first of all, a suspension of coli bacillus was subjected to centrifugal separation at 15000 rpm for 5 minutes to recover the pellets of coli bacillus, which was then suspended in 10 mL of TBS cooled to 4° C. Subsequently, by making use of French Pressure Cell, the fungus body was fractured. The resultant fungus body-fractured liquid was subjected to centrifugal separation (15000 rpm, 10 minutes) to remove settled residues and to recover a supernatant liquid.
(§11) Subsequently, 2 mL of TBS was added to a column having 2 mL of bed volume and subjected to filtration. Then, 500 μL of a Ni-Agar suspension and 2 mL of TBS were added to the column and the TBS was allowed to gravitationally drop (column equilibration). The supernatant liquid thus recovered was added to the column and allowed to gravitationally drop. Incidentally, the operation until the drop of the supernatant liquid was completed was performed inside a refrigerator at a temperature of 4° C. […]

[2] = tested on: CBR luciferase (originating from Hikari Kometsuki); test: Km value of CBR luciferase relative to D-luciferin and ATP (luminometer, photon count); format: biochemical; conditions: 8 mM MgSO4, 0.1M Tris-HCl pH 8.0
Experimental: as §1, §2, §3, §4, §5, §6, §7, §8, §9
(§12) Namely, first of all, a suspension of coli bacillus was subjected to centrifugal separation at 15000 rpm for 5 minutes to recover the pellets of coli bacillus, which was then suspended in 10 mL of TBS cooled to 4° C. Subsequently, by making use of French Pressure Cell, the fungus body was fractured. […]

[3] = biological target: GL3 luciferase (originating from firefly) (Photinus pyralis, UniProt P08659, K549A/L550V/N119G/N50D/S548I); test: Km value of GL3 luciferase relative to D-luciferin and ATP (luminometer, photon count); format: biochemical; conditions: read-out: Km value of GL3 relative to ATP, 10-1280 μM ATP, 1 mM D-luciferin, 8 mM MgSO4, 0.1M Tris-HCl pH 8.0
Chain of GL3 luciferase (originating from firefly) (P08659 whole entry N50D/N119G/S548I/K549A/L550V): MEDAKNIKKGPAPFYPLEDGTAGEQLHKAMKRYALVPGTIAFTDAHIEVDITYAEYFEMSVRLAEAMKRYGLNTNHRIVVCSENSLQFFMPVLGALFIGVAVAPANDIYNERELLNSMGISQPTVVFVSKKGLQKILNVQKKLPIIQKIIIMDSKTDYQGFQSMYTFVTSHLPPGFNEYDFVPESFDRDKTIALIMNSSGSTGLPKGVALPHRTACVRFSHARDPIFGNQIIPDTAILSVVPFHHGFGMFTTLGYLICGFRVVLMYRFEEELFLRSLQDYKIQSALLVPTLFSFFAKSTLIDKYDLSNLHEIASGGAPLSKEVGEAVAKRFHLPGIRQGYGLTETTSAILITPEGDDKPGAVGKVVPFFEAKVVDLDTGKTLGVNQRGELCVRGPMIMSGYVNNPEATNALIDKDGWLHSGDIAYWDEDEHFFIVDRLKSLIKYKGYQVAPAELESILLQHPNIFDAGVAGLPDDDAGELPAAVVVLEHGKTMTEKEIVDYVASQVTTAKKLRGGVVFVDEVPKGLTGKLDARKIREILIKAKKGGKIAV
Experimental: as §1, §2, §3, §4, §5
as §6, with “medium. […]” for “medium.”

[4] = tested on: Yaeyama luciferase (Yaeyama Hime firefly, Luciola filiformis yayeyamana; DNA Sequence No. 1); test: Km value of Yaeyama luciferase relative to D-luciferin and ATP (luminometer, photon count); format: biochemical; conditions: 8 mM MgSO4, 0.1M Tris-HCl pH 8.0
Experimental: as §1, §2, §3, §4, §5, §6, §7, §8, §9, §10, §11

[5] = tested on: CBG luciferase (originating from Hikari Kometsuki); test: Km value of CBG luciferase relative to D-luciferin and ATP (luminometer, photon count); format: biochemical; conditions: 8 mM MgSO4, 0.1M Tris-HCl pH 8.0
Experimental: as §1, §2, §3, §4, §5, §6, §7, §8, §9, §12

[6] = tested on: intercellular ATP; conditions: apoptosis induced by STS; cited from earlier work
[7] = Luminescence pattern measured with a luminometer (time to peak luminescence after addition of luciferin); format: biochemical
Text: Further, with respect to the luminescence pattern obtained from the measurement using a luminometer also, the results obtained from the luciferase originated from Hikari Kometsuki were found different from the results obtained from the firefly-derived luciferase.
Although data are not shown herein, the results obtained from the Luciferase originated from Hikari Kometsuki were found different from the results obtained from the firefly-derived luciferase with respect also to the luminescence pattern obtained from the measurement using a luminometer.

[8] = Km value of luciferase relative to ATP (luminometer photon count, Example 2); format: biochemical
Experimental: (Experiment Method 4: Calculation of Km Value of Various Kind of Luciferase Relative to ATP)
Then, a 0.1M Tris-HCl (pH=8.0) solution of 100 μg/ml luciferase was prepared. The ATP solutions having the aforementioned concentrations were respectively aliquoted to a vessel having 96 wells, thus creating wells each containing 50 μl of the ATP solution.
Then, the luciferase solution was connected with a standard pump of luminometer, after which a program was prepared so as to initiate the measurement concurrent with the addition of 50 μl of the luciferase solution to each of the wells.
Subsequently, the program was started to measure the photon-count value at each ATP concentration. Incidentally, the measurement was repeated five times at each concentration of ATP.
Based on the results obtained, Lineweaver-Burk plot and Hanes-Woolf plot were prepared.

[9] = substrate: Nc1ncnc2c1ncn2[C@@H]1O[C@H](COP(=O)(O)OP(=O)(O)OP(=O)(O)O)[C@@H](O)[C@H]1O; test: purified protein, by the assay type; format: biochemical, Luciola cruciata; conditions: 10-1280 μM ATP, 1 mM D-luciferin, 8 mM MgSO4, 0.1M Tris-HCl pH 8.0
Experimental: as §1, §2
By making use of the absorbency (259 nm, 0.359±0.004, n=10) obtained from the spectrum of FIG. 7, the concentration of the ATP stock solution was calculated (ATP: λmax=259 nm, ε=15400, pH=7.0). As a result of the calculation, the concentration of the ATP stock solution was found as being 46.6 mM. […]
Subsequently, the elute was moved 400 μL by 400 μL to a centrifugal concentration tube (SUPREC™-02, available from TaKaRa Co., Ltd. (exclusion limit molecular weight: 30,000)) and then subjected to centrifugal separation (5000 rpm, 30 minutes) until the elute was concentrated to about 100 μL. Thereafter, the absorbency of the concentrated elute was measured by means of a plate reader and the concentration of luciferase was calculated from the calibration curve which was prepared by making use of BSA. […]

[10] = substrate: O=C(O)[C@H]1CSC(c2nc3ccc(O)cc3s2)=N1; test: purified protein, by the assay type; conditions: 5-640 μM D-luciferin, 4 mM ATP, 8 mM MgSO4, 0.1M Tris-HCl pH 8.0

**Q.** For `Nc1ncnc2c1ncn2[C@@H]1O[C@H](COP(=O)(O)OP(=O)(O)OP(=O)(O)O)[C@@H](O)[C@H]1O` [ATP], which Km ([1]; Hanes-Woolf plot, 10-1280 μM ATP, 1 mM D-luciferin, read-out: Km value of ELuc relative to ATP) is on record?
**A.** Its Km is 250 µM.

**Q.** What about the Km ([1]; Lineweaver-Burk plot, 10-1280 μM ATP, 1 mM D-luciferin, read-out: Km value of ELuc relative to ATP) of the same molecule?
**A.** The Km was 364 µM.

**Q.** What about the Km ([2]; Hanes-Woolf plot, 10-1280 μM ATP, 1 mM D-luciferin, read-out: Km value of CBR relative to ATP) of the same molecule?
**A.** The Km was 130 µM.

**Q.** And the Km ([2]; Lineweaver-Burk plot, 10-1280 μM ATP, 1 mM D-luciferin, read-out: Km value of CBR relative to ATP)?
**A.** Its Km is 110 µM.

**Q.** What about the Km ([3]; Hanes-Woolf plot) of the same molecule?
**A.** The Km was 200 µM.

**Q.** And the Km ([3]; Lineweaver-Burk plot)?
**A.** The Km was 200 µM.

**Q.** And the Km ([4]; Hanes-Woolf plot, 10-1280 μM ATP, 1 mM D-luciferin, read-out: Km value of Yaeyama relative to ATP)?
**A.** Its Km is 400 µM.

**Q.** What about the Km ([4]; Lineweaver-Burk plot, 10-1280 μM ATP, 1 mM D-luciferin, read-out: Km value of Yaeyama relative to ATP) of the same molecule?
**A.** Its Km is 400 µM.

**Q.** What about the Km ([5]; Hanes-Woolf plot, 10-1280 μM ATP, 1 mM D-luciferin, read-out: Km value of CBG relative to ATP) of the same molecule?
**A.** Its Km is 290 µM.

**Q.** Which “intercellular ATP concentration at the initial stage of apoptosis” value [6] does the source give for `CN[C@@H]1C[C@H]2O[C@@](C)([C@@H]1OC)n1c3ccccc3c3c4c(c5c6ccccc6n2c5c31)C(=O)NC4` [STS, Staurosporine] here?
**A.** The value was “caused to increase”.

**Q.** For `O=C(O)[C@H]1CSC(c2nc3ccc(O)cc3s2)=N1` [D-luciferin], which Km ([1]; read-out: Km value of ELuc relative to D-luciferin, Hanes-Woolf plot, 5-640 μM D-luciferin, 4 mM ATP) is on record?
**A.** Its Km is 15 µM.

**Q.** And the Km ([1]; read-out: Km value of ELuc relative to D-luciferin, Lineweaver-Burk plot, 5-640 μM D-luciferin, 4 mM ATP)?
**A.** Its Km is 15 µM.

**Q.** And the Km ([2]; read-out: Km value of CBR relative to D-luciferin, Lineweaver-Burk plot, 5-640 μM D-luciferin, 4 mM ATP)?
**A.** Its Km is 36.4 µM.

**Q.** And the Km ([4]; read-out: Km value of Yaeyama relative to D-luciferin, Hanes-Woolf plot, 5-640 μM D-luciferin, 4 mM ATP)?
**A.** The Km was 100 µM.

**Q.** What about the Km ([4]; read-out: Km value of Yaeyama relative to D-luciferin, Lineweaver-Burk plot, 5-640 μM D-luciferin, 4 mM ATP) of the same molecule?
**A.** Its Km is 100 µM.

**Q.** What about the Km ([5]; read-out: Km value of CBG relative to D-luciferin, Hanes-Woolf plot, 5-640 μM D-luciferin, 4 mM ATP) of the same molecule?
**A.** Its Km is 10.5 µM.

**Q.** And the Km ([5]; read-out: Km value of CBG relative to D-luciferin, Lineweaver-Burk plot, 5-640 μM D-luciferin, 4 mM ATP)?
**A.** Its Km is 10.5 µM.

B1: Yaeyama: luciferase originated from Yaeyama Hime firefly (Luciola filiformis yayeyamana), DNA sequence of Sequence No. 1 (protein)
chain: MEMEKEENVVYGPQPFYPIEAGSAGIQLHKYMHQYAQLGAIAFSNALTGVDISYQEYFDITCRLAEAMKNYGMTQEGRIALCSENCEEFFIPVVAGLYIGVGVAPTNEIYTLRELNHSLGIAEPTIVFSSRKGLPKVLEVQKNVTCIKTIVILDSKVNFGGYDCVETFIKKNVPSGFQPSSFKPMDVKNRKEHLALLMNSSGSTGLPKGVQITHEGTVTRFSHAKDPIYGNQVSPGTAILTVVPFHHGFGMFTTLGYFACGYRVVMLTKFDEELFLKTLQDYKCTSVILVPTLFGILNKSELIDKFDLSNLTEIASGGAPLAKEVGEAVARRFNLPGIRQGYGLTETTSAFIITPEGDDKPGASGKVVPLFKVKVIDLDTKKTLGVNRRGEICVKGPSLMKGYVRNPEATKEIIDDEGWMHTGDIGYYDEDEHFFIVDRLKSLIKYKGYQVPPAELESVLLQHPNIFDAGVAGVPDPEAGELPGAVVVLEKGKTMTEKQIVEYVNSQVVNHKRLRGGVRFVDEVPKGLTGKIDAKVIREILKKPQSKM
modifications: Luciola filiformis yayeyamana
**Q.** With B1 as the molecule, how does the “time of peak luminescence intensity after the addition of luciferin” value [7] read?
**A.** The value was 0.5 to 1 s.

**Q.** And the “affinity to ATP as compared with other kinds of luciferase” value [8]?
**A.** Its value is “relatively low in affinity to ATP”.

B2: Genji luciferase (Genji firefly, Luciola cruciata) (Nipponoluciola cruciata) (protein)
chain: MENMENDENIVVGPKPFYPIEEGSAGTQLRKYMERYAKLGAIAFTNAVTGVDYSYAEYLEKSCCLGKALQNYGLVVDGRIALCSENCEEFFIPVIAGLFIGVGVAPTNEIYTLRELVHSLGISKPTIVFSSKKGLDKVITVQKTVTTIKTIVILDSKVDYRGYQCLDTFIKRNTPPGFQASSFKTVEVDRKEQVALIMNSSGSTGLPKGVQLTHENTVTRFSHARDPIYGNQVSPGTAVLTVVPFHHGFGMFTTLGYLICGFRVVMLTKFDEETFLKTLQDYKCTSVILVPTLFAILNKSELLNKYDLSNLVEIASGGAPLSKEVGEAVARRFNLPGVRQGYGLTETTSAIIITPEGDDKPGASGKVVPLFKAKVIDLDTKKSLGPNRRGEVCVKGPMLMKGYVNNPEATKELIDEEGWLHTGDIGYYDEEKHFFIVDRLKSLIKYKGYQVPPAELESVLLQHPSIFDAGVAGVPDPVAGELPGAVVVLESGKNMTEKEVMDYVASQVSNAKRLRGGVRFVDEVPKGLTGKIDGRAIREILKKPVAKM
**Q.** What does the source list for B2?
**A.** Km ([9]; other: Hanes-Woolf plot): 500 µM; Km ([9]; other: Lineweaver-Burk plot): 500 µM; Km ([10]; other: Hanes-Woolf plot): 75.0 µM; Km ([10]; other: Lineweaver-Burk plot): 75.0 µM
